In patent publication US20090312349A1, “ANTI-INFLAMMATORY MEDICAMENTS” (priority 2004, published 2009):

Legend:
p38 MAP kinase = p38 MAP kinase (Homo sapiens, UniProt Q16539); experiment: P38 MAP kinase binding assay (fluorescence competition with SKF 86002); conditions: time-dependent if the IC50 values decrease with the reaction time (more than two-fold in four hours)
Method: The reaction was initiated by addition of the enzyme. […] By comparison of rfu (relative fluorescence unit) values with that of a control (in the absence of an inhibitor), the percentage of inhibition at each concentration of the inhibitor was calculated. IC50 value for the inhibitor was calculated from the % inhibition values obtained at a range of concentrations of the inhibitor using Prism. When time-dependent inhibition was assessed, the plate was read at multiple reaction times such as 0.5, 1, 2, 3, 4 and 6 hours. The IC50 values were calculated at the each time point. An inhibition was assigned as time-dependent if the IC50 values decrease with the reaction time (more than two-fold in four hours).

[1] = system: TNF-alpha release from human peripheral blood mononuclear leukocytes; experiment: Human peripheral blood mononuclear leukocyte cell assay (LPS-induced TNF-alpha release, ELISA); assay type: cell-based; conditions: 25 ng/mL LPS, 16 hours, read-out: IC50, uM (inhibition of TNF-alpha release)
Method: The quantity of LPS-induced tumor necrosis factor-alpha (TNF-alpha) cytokine release is measured by a commercially available Enzyme-Linked Immunosorbent Assay (ELISA) kit. Test compounds are evaluated for their ability to inhibit TNF-alpha release.

[2] = molecular target: phosphorylated p-38-alpha kinase (Homo sapiens, UniProt Q16539); experiment: P-38 alpha kinase assay P1; assay type: biochemical; conditions: Method P1; 2 h pre-incubation before ATP
B-Raf(V599E) kinase = B-Raf(V599E) kinase (Homo sapiens, UniProt P15056, V600E); experiment: biochemical
Method: The test compounds were incubated with the reaction mixture at 30° C. for 2 h. […] The reaction rate was calculated using the 1.5 h to 2.5 h time frame. […] IC50 values were calculated from a series of percent inhibition values determined at a range of inhibitor concentrations using software routines as implemented in the GraphPad Prism software package.
Same as assay B1 except that (1) construct 2 was employed at a nominal concentration of 2 nM (2) the reaction was pre-incubated at 30° C. for 1 h prior to initiation with ATP (3) a reading time frame of 0.5 h to 1.5 h.

KDR kinase = KDR kinase (Homo sapiens, UniProt P35968, DEL940-989/E990V); experiment: KDR kinase assay K2; conditions: read-out: Results, % @ concentration μM
[3] = molecular target: T1, phospho p-38 alpha kinase (Homo sapiens, UniProt Q16539); experiment: P-38 alpha kinase assay (spectrophotometric, pyruvate kinase/lactate dehydrogenase coupled); assay type: biochemical; conditions: Table 5; assay not named; read-out: uM
T1 construct: purchased Panvera

Abl kinase = molecular target: T2, Abl kinase (Homo sapiens, UniProt P00519); experiment: Abl kinase assay A2; assay type: biochemical; conditions: Method A2; 2 h pre-incubation, 0.5 mM ATP
T2 sequence (P00519 229-512): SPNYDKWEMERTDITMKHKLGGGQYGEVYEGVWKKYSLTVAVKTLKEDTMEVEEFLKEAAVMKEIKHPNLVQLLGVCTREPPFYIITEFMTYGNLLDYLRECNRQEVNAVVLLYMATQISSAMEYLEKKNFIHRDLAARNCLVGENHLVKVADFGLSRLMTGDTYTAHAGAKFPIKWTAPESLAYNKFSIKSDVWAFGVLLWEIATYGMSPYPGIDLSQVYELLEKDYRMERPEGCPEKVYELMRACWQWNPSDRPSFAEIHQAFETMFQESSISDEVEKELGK
Method: IC50 values were calculated from a series of percent inhibition values determined at a range of inhibitor concentrations using software routines as implemented in the GraphPad Prism software package.

p38 MAP kinase, sequence (Q16539 whole entry): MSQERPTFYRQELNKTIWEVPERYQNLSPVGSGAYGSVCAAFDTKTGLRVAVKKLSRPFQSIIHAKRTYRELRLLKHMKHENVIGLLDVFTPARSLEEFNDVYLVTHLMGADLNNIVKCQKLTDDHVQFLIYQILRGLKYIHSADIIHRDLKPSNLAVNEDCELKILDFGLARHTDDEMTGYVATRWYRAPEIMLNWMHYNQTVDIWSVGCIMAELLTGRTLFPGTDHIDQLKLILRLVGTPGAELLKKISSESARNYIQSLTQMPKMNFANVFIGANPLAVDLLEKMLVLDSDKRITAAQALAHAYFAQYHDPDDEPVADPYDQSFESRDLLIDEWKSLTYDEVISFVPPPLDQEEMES
B-Raf(V599E) kinase, sequence (P15056 433-726 V600E): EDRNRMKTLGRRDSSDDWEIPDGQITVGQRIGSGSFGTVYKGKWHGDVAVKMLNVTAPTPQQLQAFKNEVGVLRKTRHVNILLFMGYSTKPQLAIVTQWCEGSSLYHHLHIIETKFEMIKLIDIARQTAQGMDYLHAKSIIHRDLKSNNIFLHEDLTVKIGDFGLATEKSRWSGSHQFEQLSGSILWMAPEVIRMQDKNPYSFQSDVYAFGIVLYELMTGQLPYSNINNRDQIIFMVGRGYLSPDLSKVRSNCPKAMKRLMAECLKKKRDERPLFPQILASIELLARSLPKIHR
phosphorylated p-38-alpha kinase, sequence (Q16539 1-360 isoform Q16539-2): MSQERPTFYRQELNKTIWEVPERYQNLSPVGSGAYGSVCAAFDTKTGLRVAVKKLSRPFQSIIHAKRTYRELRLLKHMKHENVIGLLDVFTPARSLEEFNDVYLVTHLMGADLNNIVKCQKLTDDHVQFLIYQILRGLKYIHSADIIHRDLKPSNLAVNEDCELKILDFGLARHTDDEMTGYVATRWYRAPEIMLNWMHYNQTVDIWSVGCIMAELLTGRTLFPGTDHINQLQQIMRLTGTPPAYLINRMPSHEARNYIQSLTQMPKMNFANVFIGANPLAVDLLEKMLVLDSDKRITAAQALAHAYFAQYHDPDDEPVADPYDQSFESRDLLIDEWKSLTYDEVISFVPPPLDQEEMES
KDR kinase, sequence (P35968 with tags, fused parts or gaps DEL940-989/E990V): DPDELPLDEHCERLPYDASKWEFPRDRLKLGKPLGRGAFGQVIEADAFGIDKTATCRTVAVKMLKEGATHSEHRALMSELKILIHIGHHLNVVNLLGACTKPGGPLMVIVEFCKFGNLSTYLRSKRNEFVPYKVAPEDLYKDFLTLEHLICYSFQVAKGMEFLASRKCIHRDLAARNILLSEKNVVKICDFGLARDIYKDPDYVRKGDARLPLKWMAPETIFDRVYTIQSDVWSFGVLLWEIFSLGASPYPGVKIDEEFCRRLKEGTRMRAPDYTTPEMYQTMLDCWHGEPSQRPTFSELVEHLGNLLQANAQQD
T1 sequence (Q16539 whole entry): as the sequence (Q16539 whole entry) above

For `CC(C)(C)c1cc(NC(=O)Nc2cccc3ccccc23)n(-c2ccc(CN)cc2)n1` [Example 45, 1-{3-t-butyl-1-[4-(aminomethyl)phenyl]-1H-pyrazol-5-yl}-3-(naphthalen-1-yl)urea], the Time-dependent (p38 MAP kinase) was “No”.

`CCOC(=O)Cc1cccc(-n2nc(C(C)(C)C)cc2NC(=O)Nc2ccc3c(c2)OCO3)c1` [Example 296, ethyl 2-(3-{5-[3-(benzo[d][1,3]dioxol-5-yl)ureido]-3-t-butyl-1H-pyrazol-1-yl}phenyl)-acetate] was tested, and the IC50 [1] was 3.49 µM.

`CC1(C(=O)O)CC2(C)CC(C)(C1)C(=O)N(Cc1cccc(-n3nc(C(C)(C)C)cc3NC(=O)Nc3ccc(Cl)cc3)c1)C2=O` (stereo not drawn) [Example 12] was tested, and the Time-dependent (p38 MAP kinase) was “No”.

In the case of `CC(C)(C)c1cc(NC(=O)Nc2cccc3ccccc23)n(-c2cccc(CC(=O)N3CCOCC3)c2)n1` [Example 21, 1-{3-t-butyl-1-[3-(2-morpholino-2-oxoethyl)phenyl]-1H-pyrazol-5-yl}-3-(naphthalene-1-yl)urea], the Time-dependent (p38 MAP kinase) is reported as “Yes”.

Work on `O=C(Cc1cccc(-n2nc(C3CCCC3)cc2NC(=O)Nc2cccc(Cl)c2Cl)c1)NCCO` [Example 488, 1-(3-cyclopentyl-1-(3-(2-(2-hydroxyethylamino)-2-oxoethyl)phenyl)-1H-pyrazol-5-yl)-3-(2,3-dichlorophenyl)urea] yielded an IC50 [2] of 0.007 µM, an inhibition at 1 µM (B-Raf(V599E) kinase; read-out: Results, % @ concentration μM) of 21% and an inhibition at 1 µM (KDR kinase) of 41%. For the same compound, the IC50 [3] was 0.54 µM.

With `CC1(C(=O)O)CC2(C)CC(C)(C1)C(=O)N(Cc1cccc(-n3nc(C(C)(C)C)cc3NC(=O)Nc3cccc4ccccc34)c1)C2=O` (stereo not drawn) [Example 11] the Time-dependent (p38 MAP kinase) was “No”.

In the case of `Cc1ccc(NC(=O)Nc2cc(C(C)(C)C)nn2-c2cccc(CC(=O)NCC(O)CO)c2)cc1Nc1nccc(-c2cccnc2)n1` (stereo not drawn) [Example 517, 1-(3-tert-butyl-1-(3-(2-(2,3-dihydroxypropylamino)-2-oxoethyl)phenyl)-1H-pyrazol-5-yl)-3-(4-methyl-3-(4-(pyridin-3-yl)pyrimidin-2-ylamino)phenyl)urea], the IC50 (B-Raf(V599E) kinase; Method B2, construct 2) is reported as 0.075 µM and the IC50 (Abl kinase) is reported as 0.0022 µM.

`CN(C)CCc1cccc(-n2nc(C(C)(C)C)cc2NC(=O)Nc2ccc3c(c2)OCO3)c1` [Example 300, 1-(benzo[d][1,3]dioxol-5-yl)-3-{3-t-butyl 1-(3-[2-(dimethylamino)ethyl]phenyl}-1H-pyrazol-5-yl)urea] showed an IC50 [1] of 4.78 µM.
